Measured values: patent US9877981B2, “NAD biosynthesis and precursors for the treatment and prevention of cancer and proliferation” (President and Fellows of Harvard College, priority 2012, dated 2018)

What was measured:
Format in all cases: cell-based, mouse
NAD+/NADH = NAD+/NADH ratio in primary myoblasts treated with pyruvate or lactate; details: primary WT myoblasts; 10 mM lactate 24 h
Procedure: (§1) Primary myoblasts cells were isolated from WT, SIRT1 KO (Price et al., 2012) and PGC-1α/β KO (Zechner et al., 2010) mice as previously described (Price et al., 2012). WT and PGC-1α/β KO primary myoblasts were plated and allowed to differentiate into myotubes by replacing the media with low glucose DMEM supplemented with 2% horse serum (Sigma-Aldrich) for 4 days. After the differentiation the cells were infected with empty vector or flag-SIRT1 adenovirus as described before (Gerhart-Hines et al., 2007). Media was replaced with fresh DMEM supplemented with 2% horse serum (Sigma-Aldrich) for an additional 48 hr and, after that the cells were harvested for the different assays as described. To investigate the role of HIF-1α in genome asynchrony, PGC-1α/β KO primary myotubes were treated for 12 hours with 1 mM DMOG (Sigma) or 10 μM DFO (Sigma), 24 h after infection with empty vector of flag-SIRT1 adenovirus or after 12 h treatment with 500 mM NMN (Sigma).

HIF-1α = experiment: Immunoblot of HIF-1α in primary WT myoblasts; details: 10 mM lactate 24 h
Procedure: as §1, with “To investigate the role of HIF-1α in genome asynchrony, PGC-1α/β KO primary myotubes were treated for 12 hours with 1 mM DMOG (Sigma) or 10 μM DFO (Sigma), 24 h after infection with empty vector of flag-SIRT1 adenovirus or after 12 h treatment with 500 mM NMN (Sigma).” left out
Protein extracts from tissue or C2C12 cells were obtained by lysis in ice-cold lysis buffer (150 mM NaCl, 10 mM Tris HCl (pH 7.4), 1 mM EDTA, 1 mM EGTA, 1% Triton X-100, 0.5% NP-40) supplemented with a cocktail of protease and phosphatase inhibitors (Roche). Protein content was determined by the Bradford protein assay (Biorad), and 50 μg proteins were run on SDS-PAGE under reducing conditions. […] The immunostaining was detected using horseradish peroxidase-conjugated anti-rabbit or anti-mouse immunoglobulin for 1 h at room temperature.

PGC-1α/β KO myotubes = experiment: qPCR of ETC genes in PGC-1α/β KO myotubes; details: for expression of nuclear- and mitochondrial-encoded genes: EX-527 48 h
Procedure: as §1
(§2) RNA from skeletal muscle tissue and C2C12 cells were extracted with RNeasy mini kit (Qiagen) according to the instructions and quantified using the NanoDrop 1000 spectrophotometer (Thermo Scientific). cDNA was synthesized with the iSCRIP cDNA synthesis kit (BioRad) using 600 ng of RNA. Quantitative RT-PCR reactions were performed using 1 μM of primers and LightCycler® 480 SYBR Green Master (Roche) on an LightCycler® 480 detection system (Roche). Calculations were performed by a comparative method (2-ΔCT) using 18S as an internal control. For mtDNA analysis, total DNA was extracted with DNeasy blood and tissue kit (Qiagen). mtDNA was amplified using primers specific for the mitochondrial cytochrome c oxidase subunit 2 (COX2) gene and normalized to genomic DNA by amplification of the ribosomal protein s18 (rps18) nuclear gene. Primers were designed using the IDT software (IDT) and the primer sequences can be found in Table 1.

C2C12 myoblasts = experiment: mtDNA content and ETC gene expression in C2C12 myoblasts; details: C2C12 cells; 10 μM EX-527 for 12 h
Procedure: C2C12 cell line (ATCC) was cultured in low glucose Dulbecco's modified eagle medium (DMEM) (Invitrogen) supplemented with 10% FBS (Invitrogen) and a mix of antibiotic and antimycotic (Invitrogen). To inhibit SIRT1, cells were treated the vehicle (0.001% DMSO) or 10 μM EX-527 (Tocris) for 12 h. C2C12 myoblasts were infected with an empty or SIRT1 adenovirus as described before (Gerhart-Hines et al., 2007) and the media was replaced with fresh DMEM for additional 48 h, after that the cells were treated as described before. To test the effects of hypoxia and HIFα stabilization in genome asyncrony, C2C12 myoblasts were exposed to 1% oxygen for 16 h or treated with the vehicle (0.001% DMSO) or DMOG (Cayman) for the same period of time.
as §2

CC(O)C(=O)O (stereo not shown) [lactate]
NAD+/NADH ratio (NAD+/NADH): decreasing NAD^+/NADH ratio
HIF-1α protein stabilization (HIF-1α): induces HIF-1α protein stabilization

CC(=O)N(O)CCCCCNC(=O)CCC(=O)N(O)CCCCCNC(=O)CCC(=O)N(O)CCCCCN [DFO, desferrioxamine]
effect on NMN-induced expression of mitochondrially-encoded ETC genes (PGC-1α/β KO myotubes; PGC-1α/β KO myotubes, NMN plus 1 mM DMOG or 10 μM DFO, 12 hours): completely abolished
effect on induction of mitochondrial ETC genes by SIRT1 overexpression (PGC-1α/β KO myotubes; PGC-1α/β knockout myotubes with SIRT1 adenovirus, 1 mM DMOG or 10 μM DFO): completely blocked

NC(=O)C1CCCc2c1[nH]c1ccc(Cl)cc21 (stereo not shown) [EX-527]
expression of nuclear- and mitochondrial-encoded genes (PGC-1α/β KO myotubes; PGC-1α/β KO myotubes reconstituted with PGC-1α T177A/S538A mutant): only the mitochondrial-encoded genes decreased
expression of nuclear- and mitochondrial-encoded genes (PGC-1α/β KO myotubes; PGC-1α/β KO myotubes reconstituted with WT PGC-1α): decreased both nuclear- and mitochondrial-encoded genes
genome asynchrony (C2C12 myoblasts): Genome asynchrony was induced
